The values below come from US8470745B2, “Methods and compositions for obtaining and using biologically active multi-protein complexes” (priority 2006, dated 2013).

Assay [1] has as its system GABAA receptor complexes. As to the kind of experiment: Tyrosine phosphorylation in isolated GABAA receptor complexes (Western blotting). It counts as biochemical. The conditions noted are these: Five mM SOV, 30° C. for 1 hour, hippocampus tissue, vs control. As for the experimental part: To test the effect of PTP inhibitor SOV on isolated GABA receptor complexes, hippocampus tissue was removed and homogenized with the solubilization/immunoprecipitation buffer described above. GABAA receptor complexes were immunoprecipitated using anti-β2/β3 antibody (Upstate Biotechnology, Lake Placid, N.Y., USA) as described in Example 1. The immobilized complexes were rinsed and solubilization/immunoprecipitation buffer was replaced with reaction buffer. This reaction buffer was added to all the wells. Control wells contained only the reaction buffer or reaction buffer and ATP alone. Five mM of SOV was added to the rest of the wells and incubated at 30° C. for 1 hour. The reaction was stopped with a blocking buffer and samples rinsed and subjected to Western blotting with anti-pTyr and anti-β2/β3 antibodies.

Assay [2] deals with α-7nACh receptor complexes. As to the kind of experiment: Tyrosine phosphorylation in isolated α-7nACh receptor complexes (Western blotting). It counts as biochemical. The conditions noted are these: Five mM SOV, 30° C. for 1 hour, hippocampus tissue, vs control. The protocol:
To test the effect of PTP inhibitor SOV on isolated a-7nACh receptor complexes, hippocampus tissue was dissected from the brain and homogenized with the solubilization/immunoprecipitation buffer described above, with some modifications. The solubilization buffer contained 0.05% TritonX-100 instead of 0.1% as used in Example 1. Immobilized complexes were rinsed and solubilization/immunoprecipitation buffer was replaced with reaction buffer. This reaction buffer was added to all the wells. Control wells contained only the reaction buffer or reaction buffer and ATP alone. Five mM SOV was added to rest of the wells and incubated at 30° C. for 1 hour. The reaction was stopped with a blocking buffer and samples rinsed and subjected to Western blotting with anti-pTyr, anti-α7 antibodies.
On the technique in general: Immunoblotting shows a protein as a band on a membrane.

For assay [3], the system named is HCN4 ion channel complexes. As to the kind of experiment: Tyrosine phosphorylation in isolated HCN4 ion channel complexes. The conditions noted are these: Five mM SOV, 30° C. for 1 hour; rat ventricles; vs control. It counts as biochemical. The protocol:
To test the effect of PTP inhibitor SOV, rat ventricles were dissected and homogenized in solubilization/immunoprecipitation buffer and subjected to co-immunoprecipitation by incubation with anti-HCN4 polyclonal antibody (Alpha Diagnostic International, San Antonio, Tex.), as described in Example 1. Immobilized complexes were rinsed and solubilization/immunoprecipitation buffer was replaced with reaction buffer. This reaction buffer was added to all the wells. Control wells contained only the reaction buffer or reaction buffer and ATP alone. Five mM SOV was added to rest of the wells and incubated at 30° C. for 1 hour. The reaction was stopped with blocking buffer and samples were rinsed and subjected to Western blotting or fluorescence analysis using anti-pTyr and anti-HCN4 antibodies.

For assay [4], the system named is NMDAR complexes. Put plainly: Activity test on immobilized NMDAR complexes (immunoblotting and immunofluorescence detection). Conditions: Five mM SOV, 30° C. for 1 hour, vs control. It counts as biochemical, rat. As for the experimental part: Experiments were performed on cortical tissue obtained from 3 week-old Sprague-Dawley rats. All procedures were conducted in strict adherence with the NIH Guide for the Care and Use of Laboratory Animals. Cortical tissue from 21 day-old rats was solubilized using a syringe in solubilization/immunoprecipitation buffer containing 0.1% Triton X-100, 0.2% β-mercaptoethanol, 50 mM Tris-HCl pH 7.5, 5 mM EDTA, 5 mM EGTA, 10 mg/ml of Sigma protease inhibitor cocktail, 1 mM phenylmethylsulfonyl fluoride. The tissue homogenate was centrifuged (15,000 g for 10 min at 4° C.) to remove insoluble material. The supernatantusprenat was kept at 4° C. and used later for immunoprecipitation. Protein A/G pre-coated 96-well plates (Pierce Biotechnology, Rockford, Ill.) were used for immunoprecipitation of active NMDA receptor complexes. The plates were washed with the solubilization/immunoprecipitation buffer and anti-NR1 antibody (20 μg) was added to each well in 100 μL of extraction buffer. Following a 2 hour incubation at room temperature, the wells were rinsed 3 times with solubilization/immunoprecipitation buffer and 100 μL of supernatant were added to each well. Following 4 hours incubation at 4° C., the wells were washed three times with a reaction buffer containing: 0.2% β-mercaptoethanol, 25 mM Tris-HCl pH 7.5, 30 mM MgCl2, 20 mM MnCl2, 0.5 mM DTT.
Fifty μL of reaction buffer, 500 μM ATP, and the agents to be tested were added to each well. The control wells contained 50 μL of reaction buffer alone or in the presence 500 μM ATP. All samples were incubated at 30° C. for 1 hour. […]
For fluorescence detection experiments, black 96-well plates were used to avoid fluorescence spill over. […] Multi-well plates were read on a Cytofluor 2350 fluorescence plate reader using the appropriate filters. […]

Setting [5] is: immunoblotting and immunofluorescence.

`[Na+].[Na+].[Na+].[O]=[V]([O-])([O-])[O-]` [SOV, sodium orthovanadate]: in assay [1], the “tyrosine phosphorylation of β2/β3 subunits (ratio of pTyr to β2/β3)” value is “increased”. In addition, the “tyrosine phosphorylation of α-7 subunits in the receptor (FIG. 5: ratio of pTyr to α-7)” value in assay [2] is “increased”. Moreover, the “tyrosine phosphorylation of HCN4 subunits (ratio of pTyr to HCN4)” value in assay [3] is reported as “increased”. In addition, in assay [4] (setting [5]), the “amount of NR2A/B in the receptor (ratio NR2A/B to NR1)” value was “decreased” and the “tyrosine phosphorylation of NR2A/B subunits (ratio of pTyr to NR2A/B)” value was “increased”. Further, the “amount of PSD-95 in the receptor (ratio PSD-95 to NR1)” value in assay [4] is listed as “decreased”.
